Reference: US11712438B2, “Phenyl derivatives as PGE2 receptor modulators” (IDORSIA PHARMACEUTICALS LTD, priority 2017, dated 2023)

What was measured:
Assay in all cases: cell-based
EP2 = EP2 (Homo sapiens, UniProt P43116);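 further: SF295 glioblastoma cells with endogenous EP2 only, PGE2-stimulated cAMP accumulation read by HTRF competitive immunoassay, 45 min pre-incubation then 30 min at room temperature, IBMX in buffer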
PTRGER4 (EP4) = PTRGER4 (EP4) (Homo sapiens, UniProt P35408);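 further: assay plate preincubated 15 min at 37 °C, after which PGE2 was added at 20 nM final and incubation continued 120 min at 37 °C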
EP4 = EP4 (Homo sapiens, UniProt P35408);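 further: inhibition of PGE2-evoked (6 nM) cAMP accumulation in BT549 breast cancer cells endogenously expressing EP4, cAMP read by HTRF competitive immunoassay after 30 min at room temperature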
Sequence of EP4 (P35408 whole entry): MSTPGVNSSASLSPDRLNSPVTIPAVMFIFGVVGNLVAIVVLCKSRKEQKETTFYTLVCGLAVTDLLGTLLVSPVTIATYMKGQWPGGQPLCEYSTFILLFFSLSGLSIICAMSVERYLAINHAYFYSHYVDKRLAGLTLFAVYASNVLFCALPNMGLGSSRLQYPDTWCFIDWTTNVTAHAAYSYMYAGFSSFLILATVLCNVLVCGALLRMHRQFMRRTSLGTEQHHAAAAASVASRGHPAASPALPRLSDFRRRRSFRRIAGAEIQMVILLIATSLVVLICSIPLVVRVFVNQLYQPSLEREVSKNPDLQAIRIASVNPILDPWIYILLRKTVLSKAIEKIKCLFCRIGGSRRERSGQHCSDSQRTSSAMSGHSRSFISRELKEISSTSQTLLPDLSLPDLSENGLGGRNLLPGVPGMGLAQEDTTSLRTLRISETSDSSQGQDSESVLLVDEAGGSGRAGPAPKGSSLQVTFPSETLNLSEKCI

Sequence of EP2 (P43116 whole entry): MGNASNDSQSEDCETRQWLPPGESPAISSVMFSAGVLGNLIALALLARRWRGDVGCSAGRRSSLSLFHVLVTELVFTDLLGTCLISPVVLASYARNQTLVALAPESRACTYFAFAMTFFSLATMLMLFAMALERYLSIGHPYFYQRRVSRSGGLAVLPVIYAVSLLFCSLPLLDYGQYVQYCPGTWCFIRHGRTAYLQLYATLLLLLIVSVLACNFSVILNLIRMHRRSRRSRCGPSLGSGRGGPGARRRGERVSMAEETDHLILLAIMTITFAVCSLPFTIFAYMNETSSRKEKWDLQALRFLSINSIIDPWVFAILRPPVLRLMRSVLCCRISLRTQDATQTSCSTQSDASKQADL
Sequence of PTRGER4 (EP4) (P35408 whole entry): as the sequence (P35408 whole entry) above

| SMILES | IC50 (EP2) | IC50 (PTRGER4 (EP4)) | IC50 (EP4) |
| --- | --- | --- | --- |
| CCOc1cc(-c2cc(NCCc3ccc(Br)cc3)ncn2)sc1-c1noc(=S)[nH]1 [Example 132, 3-(5-{6-[2-(4-Bromo-phenyl)-ethylamino]-pyrimidin-4-yl}-3-ethoxy-thiophen-2-yl)-[1,2,4]oxadiazole-5(4H)-thione] | 594 nM | 6 nM | 60 nM |
| Brc1ccc(CCNc2cc(-c3ccc(Cc4nnn[nH]4)s3)ncn2)cc1 [Example 288, [2-(4-Bromo-phenyl)-ethyl]-{6-[5-(1H-tetrazol-5-ylmethyl)-thiophen-2-yl]-pyrimidin-4-yl}-amine] | 739 nM | 1190 nM | 775 nM |
| CCOc1cc(-c2cc(NCCc3ccc(OC)c(Cl)c3)ncn2)sc1-c1noc(=O)[nH]1 [Example 122, 3-(5-{6-[2-(3-Chloro-4-methoxy-phenyl)-ethylamino]-pyrimidin-4-yl}-3-ethoxy-thiophen-2yl)-[1,2,4]oxadiazol-5(4H)-one] | 906 nM | 8 nM | 19 nM |
| CCOc1cc(-c2cc(NCCc3ccc(Br)cc3)ncn2)sc1C(N)=O [Example 128, 5-{6-[2-(4-Bromo-phenyl)-ethylamino]-pyrimidin-4-yl}-3-ethoxy-thiophene-2-carboxylic acid amide] | 629 nM | 34 nM | 235 nM |
| O=c1nc(-c2ccc(-c3cc(NCCc4c(F)cc(Br)cc4F)ncn3)cc2)o[nH]1 [Example 34, 5-(4-(6-((4-Bromo-2,6-difluorophenethyl)amino)pyrimidin-4-yl)phenyl)-[1,2,4]oxadiazol-3(2H)-one] | 437 nM | 261 nM | 676 nM |
| Cc1ccc(CCNc2cc(-c3ccc(C(=O)O)c(OC4CCC4)c3)ncn2)cc1C [Example 20, 2-Cyclobutoxy-4-{6-[2-(3,4-dimethyl-phenyl)-ethylamino]-pyrimidin-4-yl}-benzoic acid] | 498 nM | 446 nM | 574 nM |
| CCOc1cc(-c2cc(NCCc3ccc(Br)cc3CC)ncn2)sc1-c1noc(=O)[nH]1 [Example 104, 3-(5-{6-[2-(4-Bromo-2-ethyl-phenyl)-ethylamino]-pyrimidin-4-yl}-3-ethoxy-thiophen-2-yl)-[1,2,4]oxadiazol-5(4H)-one] | 956 nM | 101 nM | 399 nM |
| CCOc1cc(-c2cc(NCCc3ccc(Br)cc3)ncn2)sc1CCc1noc(=O)[nH]1 [Example 144, 3-[2-(5-{6-[2-(4-Bromo-phenyl)-ethylamino]-pyrimidin-4-yl}-3-ethoxy-thiophen-2-yl)-ethyl]-[1,2,4]oxadiazol-5(4H)-one] | 1000 nM | 126 nM | 433 nM |
| CCOc1cc(-c2cc(NCCc3cccc(Br)c3)ncn2)sc1C(=O)O [Example 79, 5-{6-[2-(3-Bromo-phenyl)-ethylamino]-pyrimidin-4-yl}-3-ethoxy-thiophene-2-carboxylic acid] | 408 nM | 203 nM | 106 nM |
| CCOc1cc(-c2cc(NCCc3ccc(N(C)C)cc3F)ncn2)sc1-c1noc(=O)[nH]1 [Example 161, 3-(5-{6-[2-(4-Dimethylamino-2-fluoro-phenyl)-ethylamino]-pyrimidin-4-yl}-3-ethoxy-thiophen-2-yl)[1,2,4]oxadiazol-5(4H)-one] | 713 nM | 10 nM | 40 nM |
| CCOc1cc(-c2cc(NCCc3cccc(Cl)c3)ncn2)sc1C(=O)O [Example 77, 5-{6-[2-(3-Chloro-phenyl)-ethylamino]-pyrimidin-4-yl}-3-ethoxy-thiophene-2-carboxylic acid] | 415 nM | 121 nM | 108 nM |
| Oc1cc(-c2ccc(-c3cc(NCCc4c(F)cc(Br)cc4F)ncn3)cc2)on1 [Example 33, 5-(4-{6-[2-(4-Bromo-2,6-difluoro-phenyl)-ethylamino]-pyrimidin-4-yl}-phenyl)-isoxazol-3-ol] | 1130 nM | 156 nM | 149 nM |
| NC(=O)Cc1ccc(-c2cc(NCCc3ccc(Br)cc3)ncn2)s1 [Example 158, 2-(5-{6-[2-(4-Bromo-phenyl)-ethylamino]-pyrimidin-4-yl}-thiophen-2-yl)-acetamide] | 643 nM | 2270 nM | 913 nM |
| CCOc1cc(-c2cc(NCCc3ccc(C(F)(F)F)cc3F)ncn2)sc1-c1noc(=O)[nH]1 [Example 93, 3-(3-Ethoxy-5-{6-[2-(2-fluoro-4-trifluoromethyl-phenyl)-ethylamino]-pyrimidin-4-yl}-thiophen-2yl)-[1,2,4]oxadiazol-5(4H)-one] | 509 nM | 3 nM | 6 nM |
| CCOc1cc(-c2cc(NCCc3ccc(Cl)cc3NC)ncn2)sc1-c1noc(=O)[nH]1 [Example 91, 3-(5-{6-[2-(4-Chloro-2-methylamino-phenyl)-ethylamino]-pyrimidin-4-yl}-3-ethoxy-thiophen-2yl)-[1,2,4]oxadiazol-5(4H)-one] | 2840 nM | 42 nM | 335 nM |
| CCOc1cc(-c2cc(NCCc3ccc(OC)c(Br)c3)ncn2)sc1C(=O)O [Example 74, 5-{6-[2-(3-Bromo-4-methoxy-phenyl)-ethylamino]-pyrimidin-4-yl}-3-ethoxy-thiophene-2-carboxylic acid] | 533 nM | 90 nM | 33 nM |
| CCOc1cc(-c2cc(NCCc3ccc(Br)cc3N3CCCC3)ncn2)sc1-c1noc(=O)[nH]1 [Example 112, 3-(5-{6-[2-(4-Bromo-2-pyrrolidin-1-yl-phenyl)-ethylamino]-pyrimidin-4-yl}-3-ethoxy-thiophen-2yl)-[1,2,4]oxadiazol-5(4H)-one] | 892 nM | 80 nM | 192 nM |
| COc1cccc(CCNc2cc(-c3cc(C(F)(F)F)c(C(=O)O)s3)ncn2)c1 [Example 63, 5-{6-[2-(3-Methoxy-phenyl)-ethylamino]-pyrimidin-4-yl}-3-trifluoromethyl-thiophene-2-carboxylic acid] | 644 nM | 233 nM | 105 nM |
| CCOc1cc(-c2cc(NCCc3ccc(O)cc3)ncn2)sc1C(=O)O [Example 69, 3-Ethoxy-5-{6-[2-(4-hydroxy-phenyl)-ethylamino]-pyrimidin-4-yl}-thiophene-2-carboxylic acid] | 382 nM | 915 nM | 170 nM |
| CCOc1cc(-c2cc(NCCc3ccc(Br)cc3)ncn2)sc1CC(N)=O [Example 287, 2-(5-{6-[2-(4-Bromo-phenyl)-ethylamino]-pyrimidin-4-yl}-3-ethoxy-thiophen-2-yl)-acetamide] | 868 nM | 315 nM | 1210 nM |

Continued, values first:

| IC50 (EP2) | IC50 (PTRGER4 (EP4)) | IC50 (EP4) | SMILES |
| --- | --- | --- | --- |
| 381 nM | 8 nM | 168 nM | CCOc1cc(-c2cc(NCCc3ccc(Br)cc3)ncn2)sc1-c1noc(NCCO)n1 [Example 141, 2-[3-(5-{6-[2-(4-Bromo-phenyl)-ethylamino]-pyrimidin-4-yl}-3-ethoxy-thiophen-2-yl)-[1,2,4]oxadiazol-5-ylamino]-ethanol] |
| 358 nM | 116 nM | 166 nM | CCOc1cc(-c2cc(NCCc3ccc(Br)cc3OC(F)(F)F)ncn2)sc1-c1noc(=O)[nH]1 [Example 84, 3-(5-{6-[2-(4-Bromo-2-trifluoromethoxy-phenyl)-ethylamino]-pyrimidin-4-yl}-3-ethoxy-thiophen-2yl)-[1,2,4]oxadiazol-5(4H)-one] |
| 208 nM | 14 nM | 13 nM | CCOc1cc(-c2cc(NCCc3ccc(C)c(C)c3)ncn2)sc1-c1noc(=O)[nH]1 [Example 83, 3-(5-{6-[2-(3,4-Dimethyl-phenyl)-ethylamino]-pyrimidin-4-yl}-3-ethoxy-thiophen-2-yl)-[1,2,4]oxadiazol-5(4H)-one] |
| 290 nM | 6 nM | 149 nM | CCOc1cc(-c2cc(NCCc3ccc(Br)cc3)ncn2)sc1-c1noc(N)n1 [Example 139, {6-[5-(5-Amino-[1,2,4]oxadiazol-3-yl)-4-ethoxy-thiophen-2-yl]-pyrimidin-4-yl}-[2-(4-bromo-phenyl)-ethyl]-amine] |
| 371 nM | 411 nM | 963 nM | CCOc1cc(-c2cc(NCCc3ccc(Br)cc3)ncn2)sc1Cc1noc(=O)[nH]1 [Example 137, 3-(5-{6-[2-(4-Bromo-phenyl)-ethylamino]-pyrimidin-4-yl}-3-ethoxy-thiophen-2-ylmethyl)-[1,2,4]oxadiazol-5(4H)-one] |
| 318 nM | 554 nM | 125 nM | CCOc1cc(-c2cc(NCCc3cccc(F)c3)ncn2)sc1C(=O)O [Example 81, 3-Ethoxy-5-{6-[2-(3-fluoro-phenyl)-ethylamino]-pyrimidin-4-yl}-thiophene-2-carboxylic acid] |
| 284 nM | 98 nM | 718 nM | NC(=O)c1sc(-c2cc(NCCc3c(F)cc(Br)cc3F)ncn2)cc1C(F)(F)F [Example 134, 5-{6-[2-(4-Bromo-2,6-difluoro-phenyl)-ethylamino]-pyrimidin-4-yl}-3-trifluoromethyl-thiophene-2-carboxylic acid amide] |
| 345 nM | 12 nM | 218 nM | CCOc1cc(-c2cc(NCCc3ccc(Br)cc3)ncn2)sc1-c1noc(OC)n1 [Example 140, [2-(4-Bromo-phenyl)-ethyl]-{6-[4-ethoxy-5-(5-methoxy-[1,2,4]oxadiazol-3-yl)-thiophen-2-yl]-pyrimidin-4-yl}-amine] |
| 295 nM | 1160 nM | 166 nM | CCOc1cc(-c2cc(NCCc3ccc(C)cc3C)ncn2)sc1C(=O)O [Example 57, 5-{6-[2-(2,4-Dimethyl-phenyl)-ethylamino]-pyrimidin-4-yl}-3-ethoxy-thiophene-2-carboxylic acid] |
| 318 nM | 134 nM | 256 nM | CCOc1cc(-c2cc(NCCc3cc(Cl)ccc3C#N)ncn2)sc1-c1noc(=O)[nH]1 [Example 160, 4-Chloro-2-(2-{6-[4-ethoxy-5-(5-oxo-4,5-dihydro-[1,2,4]oxadiazol-3-yl)-thiophen-2-yl]-pyrimidin-4-ylamino}-ethyl)-benzonitrile] |
